Data published in patent US20030166530A1, “Conjugate heat shock protein-binding peptides” (priority 1997, published 2003).
Ends that are not written are not given here.

Columns and labels:
EG7 cells = test: EG7 tumor cell challenge after immunization; format: in vivo, C57BL/6 mice; details: for tumor-free animals: eight mice per group
Method: C57BL/6 mice, 8-10 weeks old, were immunized intradermally with one of the following (eight mice in each group): (a)5 μl TiterMax and 5 μg OVA peptide; (b) 15 μg hsp70 and 5 μg OVA peptide; (c) 5 μl TiterMax and […] (OVA-BiP); (d) 15 μg hsp70 and 12 μg OVA-BiP; (e) control (four animals only in this group); (f) 5 μg OVA peptide; or (g) 12 μg OVA-BiP. The mice then were injected with 4×10^6 EG7 cells. Tumor size was evaluated over time by measuring two diameters, the greatest diameter and the diameter perpendicular to the greatest diameter, and then calculating the average diameter. The results are shown in FIG. 8A-G (corresponding to groups a-g, as set forth above).

[1] = 17- versus 19-substituted herbimycin derivative; cited from earlier work
[2] = molecular target: T1, gp96 in the presence of herbimycin A (Mus musculus, UniProt P08113); test: Phage display affinity panning on gp96 in the presence of herbimycin A; format: binding; details: 20 mM HEPES pH 7.5, 100 mM KCl, 25 mM CaCl2, 5 mM MgAcetate, TWEEN-20; herbimycin A present
T1 construct: mouse cDNA encoding mature gp96 (i.e., wherein the endoplasmic reticulum signal peptide has been removed); made in house; host or cells: Escherichia coli BL21 (pET 11a)
T1 sequence (P08113 22-802): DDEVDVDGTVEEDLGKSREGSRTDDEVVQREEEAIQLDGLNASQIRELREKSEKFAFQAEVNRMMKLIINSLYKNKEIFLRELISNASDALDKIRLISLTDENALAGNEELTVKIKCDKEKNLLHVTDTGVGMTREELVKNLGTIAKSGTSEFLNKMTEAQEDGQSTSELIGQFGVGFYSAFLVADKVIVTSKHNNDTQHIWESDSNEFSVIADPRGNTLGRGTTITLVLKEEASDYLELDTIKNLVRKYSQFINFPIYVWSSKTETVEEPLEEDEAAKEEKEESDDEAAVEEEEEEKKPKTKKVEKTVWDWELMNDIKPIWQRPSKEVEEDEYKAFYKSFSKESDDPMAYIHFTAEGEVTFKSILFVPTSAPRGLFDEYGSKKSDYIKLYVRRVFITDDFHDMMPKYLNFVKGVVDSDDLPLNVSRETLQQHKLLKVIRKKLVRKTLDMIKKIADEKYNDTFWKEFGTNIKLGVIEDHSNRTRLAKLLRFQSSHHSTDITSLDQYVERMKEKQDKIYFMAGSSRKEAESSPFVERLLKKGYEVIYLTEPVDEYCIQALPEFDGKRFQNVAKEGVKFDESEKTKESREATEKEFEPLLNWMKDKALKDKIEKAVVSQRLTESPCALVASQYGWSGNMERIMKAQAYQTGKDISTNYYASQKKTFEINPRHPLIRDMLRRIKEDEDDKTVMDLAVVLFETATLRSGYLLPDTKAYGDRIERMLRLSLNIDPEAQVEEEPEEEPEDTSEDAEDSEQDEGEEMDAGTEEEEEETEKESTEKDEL
Method: Preparation of a gp96 expression vector. The mouse cDNA encoding mature gp96 (i.e., wherein the endoplasmic reticulum signal peptide has been removed) was incorporated into the pET 11a expression vector (Novagen) as follows. Gp96 cDNA insert was prepared by polymerase chain reaction (PCR) of a pRc/CMV clone containing the cDNA using the following oligonucleotide primers: […]
Expression of gp96. pET11 gp96 was transformed into BL21 Escherichia coli cells, and plated on LB plates containing ampicillin (50μg/ml). One of the resulting colonies was used to inoculate a 20 ml overnight culture of 2×TY medium containing ampicillin (150 μg/ml). The following day, the resulting culture was spun down and the harvested bacteria were resuspended in 1 ml of fresh medium. Two one liter cultures were then each inoculated with 0.5 ml of the harvested cells and allowed to grow at 37° C. until the optical density, measured at 600 nm, was 0.5. Then, IPTG was added to a concentration of 1 mM and the cells were cultured for another 3 hours before being harvested by centrifugation. The resulting cell pellet was resuspended in 20 ml of 50 mM HEPES pH 7.5, 50 mM KCl, 5 mM MgAcetate, 20% sucrose and 1 mM PMSF. Cell extracts were prepared by pressure shearing in a French Press. The lysates were then spun at 100,000×g for 1.5 hours and the supernatant, which constituted crude gp96 extract, was collected. […]

[3] = test system: OVA-primed EL-4 target cells; test: 51Cr release assay with effector cells from immunized mice; format: in vivo, C57BL/6 mice; details: mice immunized once or twice
Method: Preparation of hsp70 and/or peptide for use in immunization. Approximately 15 μg hsp70 and 12 μg OVA-BiP were mixed, on ice, to a final volume of 10 μL in Buffer Y (to produce a final concentration of 21.5 μM hsp70, 0.5 mM OVA-BiP, 20 mM HEPES pH 7.0, 150 mM KCl, 10 mM (NH4)2SO4, 2 mM MgCl2 and 2 mM MgADP, pH 7.0). The mixture was incubated for 30 minutes at 37° C. and was used for in vivo immunizations. Similar incubations were carried out with (i) 5 μl TiterMax adjuvant (Vaxcell, Norcross, Ga.) and 12 μg OVA-BiP (ii) 5 μl TiterMax and 5 μg OVA peptide or (iii) 12 μg OVA-BiP alone.
Preparation of cells for chromium release assay. […]
Chromium release assay. […] Supernatants were harvested and radioactivitiy released by cytotoxic activity was measured in a gamma counter. The percent specific lysis was calculated as 100×[(cpm release by CTL-cpm spontaneously released)/(cpm maximal release-cpm spontaneously released)]. Maximal release was determined by adding 1% NP-40 to lyse all cells. Spontaneous release of all target in the absence of effector cells (measured in a culture of target cells (in the absence of effector cells) maintained in parallel for the duration of the assay) was less than 20% of the maximal release.

[4] = peptide alone (without TiterMax or hsp70)

In the case of “Ser Ile Ile Asn Phe Glu Lys Leu (SIINFEKL; printed: Ser Ile Ile Asn Phe Glu Lys Leu) [OVA-peptide, reference compound]”, the tumor-free animals (EG7 cells; [4]) is reported as “no animals were tumor-free”.

For 17-allylamino herbimycin, the relative activity [1] is given as “more active than 19-allylamino herbimycin”.

For “Phe-His-Trp-Trp-Trp (FHWWW; printed: Phe-His-Trp-Trp-Trp) [SEQ ID NO:320]”, the “binding of phage-expressed peptides to gp96” value [2] was “appeared to be favored”.

In the case of SIINFEKLGSGHWDFAWPW [OVA-BiP], the “tumor diameter and detectable tumor formation” value (EG7 cells; peptide administered with TiterMax adjuvant) is reported as “superior to OVA peptide (FIG. 8A) in reducing tumor diameter and in preventing detectable tumor formation altogether”, the average tumor diameters (EG7 cells; peptide alone (without TiterMax or hsp70), compared with OVA-peptide alone) is reported as “average tumor diameters were smaller” and the tumor-free animals (EG7 cells; [4]) is reported as 2/8. For the same substance, the “OVA-specific cytotoxic immune response (killing of OVA-primed EL-4 target cells)” value [3] was “significant anti-OVA immune response”.
